Earlier results on 1 molecule are cited in patent US9636300B2, “Racecadotril lipid compositions” (JOHNSON & JOHNSON CONSUMER INC., priority 2013, dated 2017).

For this data set the following is noted: room temperature conditions.

As to `CC(=O)SCC(Cc1ccccc1)C(=O)NCC(=O)OCc1ccccc1` (stereo not shown) [Racecadotril], the water solubility entry is listed as “about 10 micrograms/ml”.
